Legend:
Assay type in all cases: biochemical
[1] = test system: 371 human wild-type kinases; experiment: Kinome-wide inhibitory activity profiling (panel summary); settings: 10 μM; CDK1, 2, 3, 5, 7, 9, 17, 18 complexes, LKB1, EPHA3/4/5/6, EPHB2, DYRK1A/B, MAK, MYLK4, GSK3b, FES, CHK2, PAK5, ERK1
DYRK1B = DYRK1B (Homo sapiens (Human), UniProt Q9Y463); experiment: Kinome-wide profiling; settings: read-out: % Residual Activity (mean)
CDK2/CYCLIN E = CDK2/CYCLIN E (Homo sapiens (Human), UniProt P24941); experiment: Kinome-wide profiling; settings: read-out: % Residual Activity (mean)
CDK1/cyclin A = CDK1/cyclin A (Homo sapiens (Human), UniProt P06493); experiment: Kinome-wide profiling; settings: read-out: % Residual Activity (mean)
Chain of CDK1/cyclin A (P06493 whole entry): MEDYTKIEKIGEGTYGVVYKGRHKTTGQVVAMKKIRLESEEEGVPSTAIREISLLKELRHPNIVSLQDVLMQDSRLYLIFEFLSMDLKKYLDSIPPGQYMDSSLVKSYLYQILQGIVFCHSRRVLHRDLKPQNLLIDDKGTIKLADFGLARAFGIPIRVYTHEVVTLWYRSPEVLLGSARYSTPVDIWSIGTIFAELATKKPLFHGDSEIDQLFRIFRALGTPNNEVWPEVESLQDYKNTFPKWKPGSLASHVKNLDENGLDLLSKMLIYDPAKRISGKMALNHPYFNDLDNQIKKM
Chain of CDK1/cyclin A (P20248 whole entry partner): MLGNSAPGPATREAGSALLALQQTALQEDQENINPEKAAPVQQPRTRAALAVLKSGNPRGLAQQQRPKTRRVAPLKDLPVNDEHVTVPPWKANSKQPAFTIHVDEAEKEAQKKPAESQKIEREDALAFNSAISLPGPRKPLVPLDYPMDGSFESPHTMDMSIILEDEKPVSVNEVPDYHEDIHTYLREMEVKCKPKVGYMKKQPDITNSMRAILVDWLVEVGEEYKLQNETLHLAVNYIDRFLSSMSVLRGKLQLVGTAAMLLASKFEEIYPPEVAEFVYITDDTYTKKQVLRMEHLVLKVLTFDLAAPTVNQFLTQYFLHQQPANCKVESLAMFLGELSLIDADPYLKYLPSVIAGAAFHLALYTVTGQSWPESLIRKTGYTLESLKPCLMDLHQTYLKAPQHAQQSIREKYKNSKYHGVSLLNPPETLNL

CAMKK2 = CAMKK2 (Homo sapiens (Human), UniProt Q96RR4); experiment: Kinome-wide profiling; settings: read-out: % Residual Activity (mean)
Chain of CAMKK2 (Q96RR4 whole entry): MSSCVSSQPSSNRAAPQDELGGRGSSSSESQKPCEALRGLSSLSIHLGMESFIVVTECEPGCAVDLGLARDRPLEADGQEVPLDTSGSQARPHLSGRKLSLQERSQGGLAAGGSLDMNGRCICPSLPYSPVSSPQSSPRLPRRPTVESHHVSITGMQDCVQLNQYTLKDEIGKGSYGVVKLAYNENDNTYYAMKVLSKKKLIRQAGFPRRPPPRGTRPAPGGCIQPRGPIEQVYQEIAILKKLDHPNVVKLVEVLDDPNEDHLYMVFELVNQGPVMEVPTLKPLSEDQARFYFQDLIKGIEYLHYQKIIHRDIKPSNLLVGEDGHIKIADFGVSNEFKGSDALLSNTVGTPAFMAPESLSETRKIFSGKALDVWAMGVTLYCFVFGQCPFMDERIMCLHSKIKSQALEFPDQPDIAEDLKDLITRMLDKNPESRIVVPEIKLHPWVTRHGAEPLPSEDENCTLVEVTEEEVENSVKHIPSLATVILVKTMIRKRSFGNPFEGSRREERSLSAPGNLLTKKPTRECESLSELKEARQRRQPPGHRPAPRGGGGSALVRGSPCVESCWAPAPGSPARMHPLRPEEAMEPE

ERK7/MAPK15 = ERK7/MAPK15 (Homo sapiens (Human), UniProt Q8TD08); experiment: Kinome-wide profiling; settings: read-out: % Residual Activity (mean)
CDK14/cyclin Y (PFTK1) = CDK14/cyclin Y (PFTK1) (Homo sapiens (Human), UniProt O94921); experiment: Kinome-wide profiling; settings: read-out: % Residual Activity (mean)
CDK16/cyclin Y (PCTAIRE) = CDK16/cyclin Y (PCTAIRE) (Homo sapiens (Human), UniProt Q00536); experiment: Kinome-wide profiling; settings: read-out: % Residual Activity (mean)
Chain of CDK16/cyclin Y (PCTAIRE) (Q00536 whole entry): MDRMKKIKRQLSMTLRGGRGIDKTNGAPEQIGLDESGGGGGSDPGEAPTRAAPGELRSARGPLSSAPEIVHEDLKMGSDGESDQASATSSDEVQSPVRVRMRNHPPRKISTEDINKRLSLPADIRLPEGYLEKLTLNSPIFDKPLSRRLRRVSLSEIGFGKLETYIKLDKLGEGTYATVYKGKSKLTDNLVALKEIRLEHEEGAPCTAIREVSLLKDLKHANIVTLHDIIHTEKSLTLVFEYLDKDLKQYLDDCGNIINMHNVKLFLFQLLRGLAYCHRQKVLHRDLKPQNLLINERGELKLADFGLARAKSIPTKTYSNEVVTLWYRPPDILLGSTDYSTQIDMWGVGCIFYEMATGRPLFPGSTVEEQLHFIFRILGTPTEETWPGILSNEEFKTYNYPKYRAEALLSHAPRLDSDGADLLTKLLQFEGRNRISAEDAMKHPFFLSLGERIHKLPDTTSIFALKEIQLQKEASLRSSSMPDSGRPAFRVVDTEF
Chain of CDK16/cyclin Y (PCTAIRE) (Q8ND76 whole entry partner): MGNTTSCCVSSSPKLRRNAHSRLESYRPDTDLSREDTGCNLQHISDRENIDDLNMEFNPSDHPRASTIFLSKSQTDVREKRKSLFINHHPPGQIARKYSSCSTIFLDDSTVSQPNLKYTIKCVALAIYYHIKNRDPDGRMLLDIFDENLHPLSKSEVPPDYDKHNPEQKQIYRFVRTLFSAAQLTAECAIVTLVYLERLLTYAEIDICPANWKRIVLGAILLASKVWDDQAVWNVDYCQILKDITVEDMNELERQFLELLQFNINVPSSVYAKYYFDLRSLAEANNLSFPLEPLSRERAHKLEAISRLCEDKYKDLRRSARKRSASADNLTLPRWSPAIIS

YES/YES1 = YES/YES1 (Homo sapiens (Human), UniProt P07947); experiment: Kinome-wide profiling; settings: read-out: % Residual Activity (mean)
DYRK2 = DYRK2 (Homo sapiens (Human), UniProt Q92630); experiment: Kinome-wide profiling; settings: read-out: % Residual Activity (mean)
Chain of DYRK2 (Q92630 whole entry): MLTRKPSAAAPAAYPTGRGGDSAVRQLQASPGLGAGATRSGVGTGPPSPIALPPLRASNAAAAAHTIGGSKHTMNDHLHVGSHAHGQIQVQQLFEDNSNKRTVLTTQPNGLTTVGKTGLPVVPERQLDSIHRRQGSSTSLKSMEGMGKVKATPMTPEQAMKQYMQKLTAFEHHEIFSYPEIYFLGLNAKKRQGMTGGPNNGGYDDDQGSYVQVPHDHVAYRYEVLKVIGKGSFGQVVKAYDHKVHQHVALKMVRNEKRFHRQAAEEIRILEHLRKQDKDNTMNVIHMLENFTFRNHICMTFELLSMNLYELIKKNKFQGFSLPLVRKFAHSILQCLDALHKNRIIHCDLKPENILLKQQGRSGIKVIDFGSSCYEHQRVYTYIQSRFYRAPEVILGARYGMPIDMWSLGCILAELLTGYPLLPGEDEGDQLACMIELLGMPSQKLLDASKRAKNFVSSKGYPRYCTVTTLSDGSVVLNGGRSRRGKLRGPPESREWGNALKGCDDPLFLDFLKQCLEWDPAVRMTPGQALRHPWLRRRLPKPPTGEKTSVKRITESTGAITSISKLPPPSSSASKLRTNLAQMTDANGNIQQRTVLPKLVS

CK1g3 = CK1g3 (Homo sapiens (Human), UniProt Q9Y6M4); experiment: Kinome-wide profiling; settings: read-out: % Residual Activity (mean)
PAK1 = PAK1 (Homo sapiens (Human), UniProt Q13153); experiment: Kinome-wide profiling; settings: read-out: % Residual Activity (mean)
CK1a1 = CK1a1 (Homo sapiens (Human), UniProt P48729); experiment: Kinome-wide profiling; settings: read-out: % Residual Activity (mean)
SIK2 = SIK2 (Homo sapiens (Human), UniProt Q9H0K1); experiment: Kinome-wide profiling; settings: read-out: % Residual Activity (mean)
LCK2/ICK = LCK2/ICK (Homo sapiens (Human), UniProt Q9UPZ9); experiment: Kinome-wide profiling; settings: read-out: % Residual Activity (mean)
JNK1 = JNK1 (Homo sapiens (Human), UniProt P45983); experiment: Kinome-wide profiling; settings: read-out: % Residual Activity (mean)
FRK/PTK5 = FRK/PTK5 (Homo sapiens (Human), UniProt P42685); experiment: Kinome-wide profiling; settings: read-out: % Residual Activity (mean)
HIPK4 = HIPK4 (Homo sapiens (Human), UniProt Q8NE63); experiment: Kinome-wide profiling; settings: read-out: % Residual Activity (mean)
DDR1 = DDR1 (Homo sapiens (Human), UniProt Q08345); experiment: Kinome-wide profiling; settings: read-out: % Residual Activity (mean)
CAMK2d = CAMK2d (Homo sapiens (Human), UniProt Q13557); experiment: Kinome-wide profiling; settings: read-out: % Residual Activity (mean)
LYN = LYN (Homo sapiens (Human), UniProt P07948); experiment: Kinome-wide profiling; settings: read-out: % Residual Activity (mean)
Chain of LYN (P07948 whole entry): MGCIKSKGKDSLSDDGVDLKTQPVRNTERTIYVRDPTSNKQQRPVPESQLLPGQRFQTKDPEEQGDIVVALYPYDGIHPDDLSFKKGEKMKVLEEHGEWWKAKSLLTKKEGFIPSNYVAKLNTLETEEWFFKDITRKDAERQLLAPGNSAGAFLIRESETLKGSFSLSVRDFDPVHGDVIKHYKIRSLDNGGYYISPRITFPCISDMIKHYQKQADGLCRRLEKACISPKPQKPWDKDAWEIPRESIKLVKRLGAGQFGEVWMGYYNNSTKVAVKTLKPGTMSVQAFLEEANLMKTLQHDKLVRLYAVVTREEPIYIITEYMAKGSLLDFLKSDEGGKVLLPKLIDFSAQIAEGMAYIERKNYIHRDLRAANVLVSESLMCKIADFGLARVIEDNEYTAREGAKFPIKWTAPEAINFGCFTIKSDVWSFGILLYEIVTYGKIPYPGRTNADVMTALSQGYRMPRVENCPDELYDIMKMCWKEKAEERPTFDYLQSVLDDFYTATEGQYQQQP

EPHB3 = EPHB3 (Homo sapiens (Human), UniProt P54753); experiment: Kinome-wide profiling; settings: read-out: % Residual Activity (mean)
PKCmu/PRKD1 = PKCmu/PRKD1 (Homo sapiens (Human), UniProt Q15139); experiment: Kinome-wide profiling; settings: read-out: % Residual Activity (mean)
Chain of PKCmu/PRKD1 (Q15139 whole entry): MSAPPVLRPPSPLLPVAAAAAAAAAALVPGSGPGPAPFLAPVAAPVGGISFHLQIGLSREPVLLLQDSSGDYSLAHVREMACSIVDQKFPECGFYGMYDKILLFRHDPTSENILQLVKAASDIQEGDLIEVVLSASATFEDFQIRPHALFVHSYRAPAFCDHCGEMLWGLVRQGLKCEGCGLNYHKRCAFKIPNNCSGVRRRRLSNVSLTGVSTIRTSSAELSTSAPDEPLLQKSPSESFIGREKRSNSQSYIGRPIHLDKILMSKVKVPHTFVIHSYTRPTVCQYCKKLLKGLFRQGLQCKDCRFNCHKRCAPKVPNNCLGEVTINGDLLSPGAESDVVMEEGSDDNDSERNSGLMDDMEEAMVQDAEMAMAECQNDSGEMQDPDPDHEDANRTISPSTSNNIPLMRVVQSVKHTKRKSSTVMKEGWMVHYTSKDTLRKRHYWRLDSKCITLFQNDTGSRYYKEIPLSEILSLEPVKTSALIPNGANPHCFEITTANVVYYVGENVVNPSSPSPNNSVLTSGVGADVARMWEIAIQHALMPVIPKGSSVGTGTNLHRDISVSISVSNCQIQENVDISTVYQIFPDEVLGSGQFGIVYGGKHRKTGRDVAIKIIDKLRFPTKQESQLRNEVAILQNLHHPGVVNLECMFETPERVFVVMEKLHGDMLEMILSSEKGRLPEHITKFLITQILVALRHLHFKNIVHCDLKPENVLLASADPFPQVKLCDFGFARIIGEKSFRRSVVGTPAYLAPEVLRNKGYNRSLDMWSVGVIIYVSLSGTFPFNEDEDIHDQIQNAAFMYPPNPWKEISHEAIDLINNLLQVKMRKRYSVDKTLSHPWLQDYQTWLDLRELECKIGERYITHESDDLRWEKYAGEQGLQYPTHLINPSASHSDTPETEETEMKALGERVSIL

Aurora B = Aurora B (Homo sapiens (Human), UniProt Q96GD4); experiment: Kinome-wide profiling; settings: read-out: % Residual Activity (mean)
LIMK2 = LIMK2 (Homo sapiens (Human), UniProt P53671); experiment: Kinome-wide profiling; settings: read-out: % Residual Activity (mean)
PKCtheta = PKCtheta (Homo sapiens (Human), UniProt Q04759); experiment: Kinome-wide profiling; settings: read-out: % Residual Activity (mean)
PKN3/PRK3 = PKN3/PRK3 (Homo sapiens (Human), UniProt Q6P5Z2); experiment: Kinome-wide profiling; settings: read-out: % Residual Activity (mean)
MSSK1/STK23 = MSSK1/STK23 (Homo sapiens (Human), UniProt Q9UPE1); experiment: Kinome-wide profiling; settings: read-out: % Residual Activity (mean)
FGFR4 = FGFR4 (Homo sapiens (Human), UniProt P22455); experiment: Kinome-wide profiling; settings: read-out: % Residual Activity (mean)
CTK/MATK = CTK/MATK (Homo sapiens (Human), UniProt P42679); experiment: Kinome-wide profiling; settings: read-out: % Residual Activity (mean)
Chain of CTK/MATK (P42679 whole entry): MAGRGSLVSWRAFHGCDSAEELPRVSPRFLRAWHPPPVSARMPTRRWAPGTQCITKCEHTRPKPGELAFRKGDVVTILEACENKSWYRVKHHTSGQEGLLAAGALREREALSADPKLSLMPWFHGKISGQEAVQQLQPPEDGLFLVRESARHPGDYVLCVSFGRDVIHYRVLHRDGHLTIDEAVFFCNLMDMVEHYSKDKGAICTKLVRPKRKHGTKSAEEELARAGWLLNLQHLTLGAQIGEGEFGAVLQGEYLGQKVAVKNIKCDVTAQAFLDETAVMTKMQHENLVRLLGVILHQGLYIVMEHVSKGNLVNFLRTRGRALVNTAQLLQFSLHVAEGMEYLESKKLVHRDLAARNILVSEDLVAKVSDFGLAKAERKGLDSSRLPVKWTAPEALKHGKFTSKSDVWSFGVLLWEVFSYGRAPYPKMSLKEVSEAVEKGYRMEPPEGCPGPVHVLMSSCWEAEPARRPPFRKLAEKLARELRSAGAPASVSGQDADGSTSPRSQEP

KSR2 = KSR2 (Homo sapiens (Human), UniProt Q6VAB6); experiment: Kinome-wide profiling; settings: read-out: % Residual Activity (mean)
TYK2 = TYK2 (Homo sapiens (Human), UniProt P29597); experiment: Kinome-wide profiling; settings: read-out: % Residual Activity (mean)
SGK3/SGKL = SGK3/SGKL (Homo sapiens (Human), UniProt Q96BR1); experiment: Kinome-wide profiling; settings: read-out: % Residual Activity (mean)
PLK3 = PLK3 (Homo sapiens (Human), UniProt Q9H4B4); experiment: Kinome-wide profiling; settings: read-out: % Residual Activity (mean)
NEK4 = NEK4 (Homo sapiens (Human), UniProt P51957); experiment: Kinome-wide profiling; settings: read-out: % Residual Activity (mean)
STK21/CIT = STK21/CIT (Homo sapiens (Human), UniProt O14578); experiment: Kinome-wide profiling; settings: read-out: % Residual Activity (mean)

## CCn1cnc2c(NCc3ccc(-c4ccccn4)nc3)nc(-c3ccc(N)nc3)nc21 [Example 53, N-([2,2′-bipyridin]-5-ylmethyl)-2-(6-aminopyridin-3-yl)-9-ethyl-9H-purin-6-amine]
[1]
  kinase inhibition: ≥ 90%
DYRK1B
  remaining activity at 10 µM: 3.19%
CDK2/CYCLIN E
  remaining activity at 10 µM: 4.01%
CDK1/cyclin A
  remaining activity at 10 µM: 4.65%
CAMKK2
  remaining activity at 10 µM: 10.6%
ERK7/MAPK15
  remaining activity at 10 µM: 13.5%
CDK14/cyclin Y (PFTK1)
  remaining activity at 10 µM: 14%
CDK16/cyclin Y (PCTAIRE)
  remaining activity at 10 µM: 17.5%
YES/YES1
  remaining activity at 10 µM: 20.6%
DYRK2
  remaining activity at 10 µM: 22.3%
CK1g3
  remaining activity at 10 µM: 24.4%
PAK1
  remaining activity at 10 µM: 24.5%
CK1a1
  remaining activity at 10 µM: 26.5%
SIK2
  remaining activity at 10 µM: 35.9%
LCK2/ICK
  remaining activity at 10 µM: 39.6%
JNK1
  remaining activity at 10 µM: 41.6%
FRK/PTK5
  remaining activity at 10 µM: 43.5%
HIPK4
  remaining activity at 10 µM: 43.9%
DDR1
  remaining activity at 10 µM: 50.2%
CAMK2d
  remaining activity at 10 µM: 61.7%
LYN
  remaining activity at 10 µM: 65.7%
EPHB3
  remaining activity at 10 µM: 66%
PKCmu/PRKD1
  remaining activity at 10 µM: 70.3%
Aurora B
  remaining activity at 10 µM: 73%
LIMK2
  remaining activity at 10 µM: 76.5%
PKCtheta
  remaining activity at 10 µM: 79.8%
PKN3/PRK3
  remaining activity at 10 µM: 81.5%
MSSK1/STK23
  remaining activity at 10 µM: 82.8%
FGFR4
  remaining activity at 10 µM: 87.4%
CTK/MATK
  remaining activity at 10 µM: 87.6%
KSR2
  remaining activity at 10 µM: 88.4%
TYK2
  remaining activity at 10 µM: 90.7%
SGK3/SGKL
  remaining activity at 10 µM: 92.6%
PLK3
  remaining activity at 10 µM: 94.4%
NEK4
  remaining activity at 10 µM: 95.8%
STK21/CIT
  remaining activity at 10 µM: 97.9%

Reference: patent US20250101023A1, “HETEROARYL DERIVATIVE AND USES THEREOF” (IUCF-HYU (INDUSTRY-UNIVERSITY COOPERATION FOUNDATION …, priority 2022, published 2025)
